US8101647B2, “Spiro-oxindole compounds and their use as therapeutic agents” (Xenon Pharmaceuticals Inc., priority 2008, dated 2012)

Assays:
sodium channel = experiment: Guanidine influx assay; format: cell-based, human or rat; details: known cell line that expresses a sodium channel; read-out: IC50 Activity Level
Source text: This example describes an in vitro assay for testing and profiling test agents against human or rat sodium channels stably expressed in cells of either an endogenous or recombinant origin. The assay is also useful for determining the IC50 of a sodium channel blocking compound. The assay is based on the guanidine flux assay described by Reddy, N. L., et al., J. Med. Chem. (1998), 41(17):3298-302.
The guanidine influx assay is a radiotracer flux assay used to determine ion flux activity of sodium channels in a high-throughput microplate-based format. The assay uses ^14C-guanidine hydrochloride in combination with various known sodium channel modulators, to assay the potency of test agents. Potency is determined by an IC50 calculation. Selectivity is determined by comparing potency of the compound for the channel of interest to its potency against other sodium channels (also called ‘selectivity profiling’).
Each of the test agents is assayed against cells that express the channels of interest. Voltage gated sodium channels are either TTX sensitive or insensitive. This property is useful when evaluating the activities of a channel of interest when it resides in a mixed population with other sodium channels. The following Table 1 summarizes cell lines useful in screening for a certain channel activity in the presence or absence of TTX.
It is also possible to employ recombinant cells expressing these sodium channels. Cloning and propagation of recombinant cells are known to those skilled in the art (see, for example, Klugbauer, N, et al., EMBO J. (1995), 14(6):1084-90; and Lossin, C., et al., Neuron (2002), 34, pp. 877-884).
Cells expressing the channel of interest are grown according to the supplier or in the case of a recombinant cell in the presence of selective growth media such as G418 (Gibco/Invitrogen). The cells are disassociated from the culture dishes with an enzymatic solution (1×) Trypsin/EDTA (Gibco/Invitrogen) and analyzed for density and viability using haemocytometer (Neubauer). Disassociated cells are washed and resuspended in their culture media then plated into Scintiplates (Beckman Coulter Inc.) (approximately 100,000 cells/well) and incubated at 37° C./5% CO2. for 20-24 hours. After an extensive wash with Low sodium HEPES-buffered saline solution (LNHBSS) (150 mM Choline Chloride, […] (Sigma), 1 mM Calcium Chloride, 5 mM Potassium Chloride, 1 mM Magnesium Chloride, 10 mM Glucose) agents diluted with LNHBSS are added to each well. (Varying concentrations of test agent may be used). The activation/radiolabel mixture contains aconitine (Sigma) to increase the percentage of time that the sodium channels are open, and ^14C-guanidine hydrochloride (ARC) to measure flux through the voltage-gated sodium channels.
After loading the cells with test agent and activation/radiolabel mixture, the Scintiplates are incubated at ambient temperature. Following the incubation, the Scintplates are extensively washed with LNHBSS supplemented with guanidine (Sigma). The Scintiplates are dried and then counted using a Wallac MicroBeta TriLux (Perkin-Elmer Life Sciences). The ability of the test agent to block sodium channel activity is determined by comparing the amount of ^14C-guanidine present inside the cells expressing the different sodium channels.
The IC50 value of a test agent for a specific sodium channel may be determined using the above general method. […] Typically the mid-point concentration of test agent is set at 1 μM, and sequential concentrations of half dilutions greater or smaller are applied (e.g. 0.5 μM; 5 μM and 0.25 μM; 10 μM and 0.125 μM; 20 μM etc.). The IC50 curve is calculated using the 4 Parameter Logistic Model or Sigmoidal Dose-Response Model formula (fit=(A+((B−A)/(1+((C/x)^D)))).
The fold selectivity, factor of selectivity or multiple of selectivity, is calculated by dividing the IC50 value of the test sodium channel by the reference sodium channel, for example, NaV1.5. […]

CYP3A4 = biological target: T1, CYP3A4 (Homo sapiens, UniProt P08684); experiment: Cytochrome P450 (CYP450) inhibition assay, fluorescence-based; format: in vitro ADME; details: recombinant CYP3A4 (P450 Baculosomes), probe Vivid substrate (fluorogenic)
T1 construct: purchased Invitrogen Corporation (Vivid CYP450 Screening Kit)
T1 sequence (P08684 whole entry): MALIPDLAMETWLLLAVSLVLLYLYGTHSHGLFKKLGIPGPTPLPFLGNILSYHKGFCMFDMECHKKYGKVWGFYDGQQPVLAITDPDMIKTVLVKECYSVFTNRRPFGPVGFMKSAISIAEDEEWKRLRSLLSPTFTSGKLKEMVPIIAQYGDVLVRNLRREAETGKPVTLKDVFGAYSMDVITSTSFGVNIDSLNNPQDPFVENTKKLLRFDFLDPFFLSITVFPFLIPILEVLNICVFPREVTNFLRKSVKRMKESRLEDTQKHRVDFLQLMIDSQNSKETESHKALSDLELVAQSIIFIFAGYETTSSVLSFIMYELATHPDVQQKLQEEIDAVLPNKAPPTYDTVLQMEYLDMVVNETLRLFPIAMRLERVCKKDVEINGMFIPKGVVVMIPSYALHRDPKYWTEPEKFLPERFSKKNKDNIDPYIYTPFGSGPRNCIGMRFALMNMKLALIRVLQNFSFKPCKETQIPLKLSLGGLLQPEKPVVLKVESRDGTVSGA

Row | Compound | IC50 (sodium channel) [nM] | melting point [°C] | inhibition at 10 µM (CYP3A4) [%]
1 | CN(C)CCOc1ccc2c(c1)OCC21C(=O)Nc2ccccc21 (centres unmarked) [Example 2, 6-[2-(dimethylamino)ethoxy]spiro[1-benzofuran-3,3′-indol]-2′(1′H)-one] | ≥ 10000 | 95 to 97 | –
2 | CC(C)[Si](Oc1ccc2c(c1)OCC21C(=O)N(C[C@H]2CCCO2)c2ccccc21)(C(C)C)C(C)C (stereo partly drawn) [Example 4, 1′-[(2R)-tetrahydrofuran-2-ylmethyl]-6-{[tris(1-methylethyl)silyl]oxy}spiro[1-benzofuran-3,3′-indol]-2′(1′H)-one] | 100 to 1000 | – | –
3 | CC(=O)N1CCC[C@H]1CN1C(=O)C2(COc3cc4c(cc32)CCO4)c2ccccc21 (stereo partly drawn) [Example 8, 1′-{[(2S)-1-acetylpyrrolidin-2-yl]methyl}-5,6-dihydrospiro[benzo[1,2-b:5,4-b′]difuran-3,3′-indol]-2′(1′H)-one] | 1000 to 10000 | 103 to 108 | > 50
4 | N/C(CN1C(=O)C2(COc3cc4c(cc32)OCO4)c2c(Cl)cccc21)=N\OC(=O)C1CC1 (centres unmarked) [Example 11, 2-(4′-chloro-2′-oxospiro[furo[2,3-f][1,3]benzodioxole-7,3′-indol]-1′(2′H)-yl)-N′-[(cyclopropylcarbonyl)oxy]ethanimidamide] | 100 to 1000 | – | > 50
5 | NC(=O)COc1cccc(CN2C(=O)C3(COc4cc5c(cc43)CCO5)c3ccccc32)c1 (centres unmarked) [Example 13, 2-{3-[(2-oxo-5,6-dihydrospiro[benzo[1,2-b:5,4-b]difuran-3,3-indol]-1(2H)-yl)methyl]phenoxy}acetamide] | 1 to 100 | 109 to 111 | > 50
6 | NC(=O)COc1ccc(CN2C(=O)C3(COc4cc5c(cc43)CCO5)c3ccccc32)cc1 (centres unmarked) [Example 13.1, 2-{4-[(2′-oxo-5,6-dihydrospiro[benzo[1,2-b:5,4-b′]difuran-3,3′-indol]-1′(2′H)-yl)methyl]phenoxy}acetamide] | 1 to 100 | 215 to 216 | < 50
7 | COCCOc1ccc(CN2C(=O)C3(COc4cc5c(cc43)OCCO5)c3ccccc32)cc1 (centres unmarked) [Example 13.3, 1′-[4-(2-methoxyethoxy)benzyl]-2,3-dihydrospiro[furo[2,3-g][1,4]benzodioxine-8,3′-indol]-2′(1′H)-one] | 1 to 100 | 124 to 125 | > 50
8 | CCOC(=O)COc1ccc(CN2C(=O)C3(COc4cc5c(cc43)CCO5)c3ccccc32)cc1 (centres unmarked) [Example 14.1, ethyl {4-[(2′-oxo-5,6-dihydrospiro[benzo[1,2-b:5,4-b′]difuran-3,3′-indol]-1′(2′H)-yl)methyl]phenoxy}acetate] | 1 to 100 | 158 to 159 | < 50
9 | CCOC(=O)COc1ccc(CN2C(=O)C3(COc4cc5c(cc43)OCCO5)c3ccccc32)cc1 (centres unmarked) [Example 14.2, ethyl {4-[(2′-oxo-2,3-dihydrospiro[furo[2,3-g][1,4]benzodioxine-8,3′-indol]-1′(2′H)-yl)methyl]phenoxy}acetate] | 1 to 100 | 59 to 61 | < 50
10 | O=C(O)COc1cccc(CN2C(=O)C3(COc4cc5c(cc43)CCO5)c3ccccc32)c1 (centres unmarked) [Example 15, {3-[(2′-oxo-5,6-dihydrospiro[benzo[1,2-b:5,4-b′]difuran-3,3′-indol]-1′(2′H)-yl)methyl]phenoxy}acetic acid] | 1000 to 10000 | 95 to 96 | < 50
11 | CNC(=O)COc1cccc(CN2C(=O)C3(COc4cc5c(cc43)CCO5)c3ccccc32)c1 (centres unmarked) [Example 16, N-methyl-2-{3-[(2′-oxo-5,6-dihydrospiro[benzo[1,2-b:5,4-b′]difuran-3,3′-indol]-1′(2′H)-yl)methyl]phenoxy}acetamide] | 1 to 100 | 175 to 176 | > 50
12 | C[S+]([O-])c1ccc(CN2C(=O)C3(COc4cc5c(cc43)CCO5)c3ccccc32)cc1 (centres unmarked) [Example 17, 1′-[4-(methylsulfinyl)benzyl]-5,6-dihydrospiro[benzo[1,2-b:5,4-b′]difuran-3,3′-indol]-2′(1′H)-one] | 100 to 1000 | – | > 50

Continued, values first:

Row | IC50 (sodium channel) [nM] | melting point [°C] | inhibition at 10 µM (CYP3A4) [%] | Compound
13 | 1000 to 10000 | – | < 50 | CS(=O)(=O)N(c1ccc2c(c1)OCC21C(=O)N(C[C@H]2CCCO2)c2ccccc21)S(C)(=O)=O (stereo partly drawn) [Example 18, N-(methylsulfonyl)-N-{2′-oxo-1′-[(2R)-tetrahydrofuran-2-ylmethyl]-1′,2′-dihydrospiro[1-benzofuran-3,3′-indol]-6-yl}methanesulfonamide]
14 | 1000 to 10000 | 120 to 130 | < 50 | CC(N)COc1ccc2c(c1)OCC21C(=O)N(C[C@H]2CCCO2)c2ccccc21.Cl (stereo partly drawn) [Example 20, 6-(2-aminopropoxy)-1′-[(2R)-tetrahydrofuran-2-ylmethyl]spiro[1-benzofuran-3,3′-indol]-2′(1′H)-one hydrochloride]
15 | 1000 to 10000 | – | < 50 | CN(C)CCOc1ccc2c(c1)OCC21C(=O)N(C[C@H]2CCCO2)c2ccccc21 (stereo partly drawn) [Example 21, 6-[2-(dimethylamino)ethoxy]-1′-[(2R)-tetrahydrofuran-2-ylmethyl]spiro[1-benzofuran-3,3′-indol]-2′(1′H)-one]
16 | 1000 to 10000 | 82 to 100 | > 50 | O=C1N(C[C@H]2CCCO2)c2ccccc2C12COc1cc3c(cc12)C(=NO)CO3 (stereo partly drawn) [Example 24, 1′-[(2R)-tetrahydrofuran-2-ylmethyl]spiro[benzo[1,2-b:5,4-b′]difuran-3,3′-indole]-2′,5(1′H,6H)-dione 5-oxime]
17 | 100 to 1000 | 235 to 238 | > 50 | N/C(CN1C(=O)C2(COc3cc4c(cc32)OCO4)c2ccccc21)=N\O (centres unmarked) [Example 25, (1Z)-N′-hydroxy-2-(2′-oxospiro[furo[2,3-f][1,3]benzodioxole-7,3′-indol]-1′(2′H)-yl)ethanimidamide]
